The text below walks through data of PMC7884015 (Journal of Agricultural and Food Chemistry, 2021).

One series concerns Crithidia bombi. The conditions noted are these: bumble bees; cited from earlier work.
The conditions of series [1]: for Metabolization percentage, day 4 to 5: quantity in whole bees vs intake during the last 24 h of feeding. The source says:
(§1) Honey bees (A. mellifera L) were collected from brood frames in the apiary of Aarhus University, Flakkebjerg. The collected bees were fed on 50% sucrose for 3 days. On day 3, the bees were divided into eight experimental groups placed in feeding cages (N = 49–73). The exact numbers of bees in the individual cages were counted at the end of the experiment. A portion of bees were also collected for the analysis of the presence of the compounds prior to the experiment. Thus, these bees served as a negative control group. The feeding boxes were placed in incubators in complete darkness under the following conditions: 34 °C; 38–40% relative humidity. Information about plants known to produce the phytochemicals fed to the honey bees is included in the Supporting Information (Table S1). The prepared solutions were placed in 1.5 mL Eppendorf tubes, and the bottom of the tubes was pierced with a sterilized needle to allow the bees to feed on the solution. The feeding solutions were replaced every 24 h to prevent compound degradation and measure food intake. Dead bees were counted and removed daily. On day 5, the feeding containers were removed, and 2 h later, the bees were anesthetized with CO2 and killed by freezing.
Twelve individual bees from each of the experimental groups were rinsed with water and placed individually in 1.5 mL Eppendorf tubes. The bees were then lyophilized and transferred individually to Falcon tubes for extraction. […] The extraction solvents were added, and the bees were extracted by shaking using an Intelli-Mixer for 1 h (60 rpm). […] After extraction, the samples were centrifuged (12 min, 4 °C, 4500 rpm). […] Extracts of bees fed on triptolide were further purified by solid phase extraction (SPE) using a protocol modified from Wang et al.[30] One milliliter of the methanol extracts was diluted to 10 mL with Milli-Q water, 100 μL of formic acid was added, and the diluted extracts were loaded onto 30 mg Oasis HLB prime SPE (Waters, Hedehusene, Denmark) cartridges without prior column conditioning. The SPE cartridges were first washed with 1 mL of 2% ammonium hydroxide in 1:9 methanol/water and then with 1 mL of 2% acetic acid in 3:7 methanol/water, and triptolide was eluted from the cartridges with 1 mL of 4:1 methanol/water. Prior to HPLC-MS/MS analyses, 225 μL of the SPE eluates was diluted with 275 μL of 5 mM ammonium formate and filtered using a syringe filter (Kinesis KX PTFE syringe filter 13 mm, 0.22 μm, Mikrolab, Aarhus, Denmark).
(§2) Prior to the analysis, the compound-dependent mass spectrometer parameters of the eight compounds were optimized by infusion. For each compound, two MRM transitions were monitored (Table 2); one transition was used for quantification, whereas the other was used as a qualifier MRM to ensure correct identification.
(§3) The compounds were separated on a Synergy Fusion column (150 mm × 2 mm, 4 μm; Phenomenex, Værløse, Denmark) with a flow rate of 0.4 mL/min, and the gradient was as follows: 0–2 min: 100% A; 2–18 min: 100–30% A; 18–19 min: 30–0% A; 19–22 min: 0% A; 22–23 min: 0–100% A and 23–30 min: 100% A. Source parameters were as follows: curtain gas (CUR), 45 psi; collision gas (CAD), medium; temperature (TEM), 400 °C; ion source gas 1 (GS 1), 90 psi; ion source gas 2 (GS 2), 30 psi; and ionspray voltage (IS), 4200 V. Amygdalin was analyzed using the same source parameters and chromatographic method as described above, but in negative mode. […] The column was a Hypersil BDS C18 (250 mm × 2.1 mm, 5 μm; Thermo Fisher, Hvidovre, Denmark), and the solvent system consisted of 5 mM ammonium formate (A) and methanol (B). […] An injection volume of 30 μL was used for the triptolide analyses, whereas 20 and 30 μL were injected for the remaining compounds for whole and dissected bees, respectively.

The nature of another series: in vivo. The conditions noted are these: for Bee without gut %: percentage of total quantity recovered in the dissected bee found in the bee without gut; for Bee without gut % / Gut %: N = 6; for Gut %: percentage of total quantity recovered in the dissected bee found in the gut.
Text: as §1
Six bees from each of the experimental groups were defrosted and rinsed with water, and their heads were removed with a scalpel to cut the esophagus. The complete alimentary canal (hereafter “gut”) was removed by grabbing the stinger with tweezers and gently pulling until the alimentary canal was released.[31] The two samples consisting of the gut and the rest of the bee without the gut (head, thorax, and abdomen; hereafter, “bee without gut”) were lyophilized separately in 1.5 mL Eppendorf tubes. Upon drying, the samples comprising the bees without guts were transferred to the extraction Falcon tubes, pulverized, and extracted as described above for the whole bees. Samples comprising the guts were instead pulverized directly in the 1.5 mL Eppendorf tubes by adding two metal beads and placing these tubes in the Geno/Grinder using a modified rack. Because of the small sample size, the pulverized guts were then gradually transferred to the extraction Falcon tubes using the extraction solvents to flush the material from the Eppendorf tubes. The remaining parts of the extraction followed the protocols described above for whole bees.
as §2, §3
In the individual dissected bees (N = 6), the sum of the quantities recovered in the guts and the bees without guts designates the total quantity of compound recovered in that individual.

Series [2] concerns honey bee immune functions (antimicrobial peptide hymenoptaecin). The arrangement: method as in PMID 28981688. The conditions noted are these: cited from earlier work.
The subject of a further series is honey bees. The following applies: cited from earlier work.
In series [3] the test system is honey bee memory retrieval. The conditions noted are these: cited from earlier work.
[4] abbreviates: comparison between the eight phytochemicals, P < 0.05.
Where [5] appears, read: whole bees N = 12, sampled day 5, 2 h after feeding was terminated, ± SD.
Where [6] appears, read: honey bee (Apis mellifera), in vivo, po, oral bioavailability (%), percentage of the total ingested quantity over the 5-day feeding period recovered in the bees without guts, ± SD, dissected bees N = 6.
Where [7] appears, read: in vivo, po, oral bioavailability (%), percentage of the total ingested quantity over the 5-day feeding period recovered in the bees without guts, ± SD, dissected bees N = 6.
[8] abbreviates: dissected bees N = 6, day 5, ± SD.
Setting [9] is: percentage of the total ingested quantity over the 5-day feeding period recovered in the bees without guts, ± SD, dissected bees N = 6.
The mark [10] stands for this setting: honey bee (Apis mellifera), in vivo.

Entries after “also recorded” stand apart in the source; their conditions may differ. Where two headings read alike, the source gives them in different places. Bounds are passed on as bounds.

Take `OCC1=C[C@@H](O)[C@@H]2C=CO[C@@H](O[C@@H]3O[C@H](CO)[C@@H](O)[C@H](O)[C@H]3O)[C@H]12` [aucubin, Aucubin]: in the series on Crithidia bombi, the “Effect on levels of the bumble bee gut protozoan Crithidia bombi” value is recorded as “significantly decreased the levels”. The Relative metabolization rate entry in series [1] (setting [4]) is “metabolized significantly slower”. Besides, the “Metabolization percentage, day 4 to 5” value in series [1] was “significantly lower; also recorded: negative metabolization percentages”. Moreover, the “Mean concentration (ng/bee) in whole bees” value (shortened to “Mean concentration (ng/bee)”) in series [1] (setting [5]) came to 16400 ± 5640 ng/bee. For the same molecule, the values for the bioavailability in the series “in vivo” (setting [6]) and in the series “in vivo” (setting [7]) were 13% and 13.1 ± 3.8%, respectively. The “Effect on expression of the antimicrobial peptide hymenoptaecin” value in series [2] (aucubin feeding) is reported as “significantly increased the expression”. For the same molecule, the “Effect on honey bee immune functions” value in series [2] was “significantly stimulated honey bee immune functions”.
Regarding `CCN1C[C@]2(COC(=O)c3ccccc3N3C(=O)C[C@H](C)C3=O)CC[C@H](OC)[C@@]34[C@@H]5C[C@H]6[C@H](OC)[C@@H]5[C@](O)(C[C@@H]6OC)[C@@](O)([C@@H](OC)[C@H]23)[C@@H]14` [methyllycaconitine, Methyllycaconitine], in series [1] (setting [4]), the Relative metabolization rate result was “metabolized significantly faster”. The “Mean concentration (ng/bee)” value in series [1] (setting [5]) is given as 0.3 ± 0.2 ng/bee. In the series “in vivo” (setting [8]), the “Bee without gut (ng/bee)” value is 0.2 ± 0.1 ng/bee and the “Gut (ng/bee)” value was found to be 0.05 ± 0.03 ng/bee. Moreover, in the series “in vivo” (setting [7]), the bioavailability (usually the share of a dose that reaches the circulation, judged against a reference dose that is usually intravenous) is below 10%. In the series “in vivo” (± SD), the “Bee without gut %” value was found to be 81 ± 13% and the Gut % is listed as 19 ± 13%.
Take `C=C[C@]12CN(C)[C@@H]3[C@H]4CO[C@H](C[C@H]41)[C@]1(C(=O)Nc4ccccc41)[C@@H]32` [gelsemine, Gelsemine]: the “Effect on levels of the bumble bee gut protozoan Crithidia bombi” value in the series with Crithidia bombi is “significantly decreased the levels”. The Relative metabolization rate result in series [1] (setting [4]) is given as “metabolized significantly faster”. Further, the “Mean concentration (ng/bee)” value in series [1] (setting [5]) is 508 ± 174 ng/bee. For the same molecule, in the series “in vivo” (setting [8]), the “Bee without gut (ng/bee)” value worked out at 461 ± 415 ng/bee and the “Gut (ng/bee)” value turned out to be 106 ± 67 ng/bee. For the same molecule, the bioavailability at 5 day in “in vivo” (setting [7]) worked out at 6%. Besides, the “oral bioavailability (%)” value in “in vivo” (setting [9]) worked out at 6.1 ± 5.5%. Further, in the series “in vivo” (± SD), the “Bee without gut %” value is 71 ± 32% and the Gut % was 30%. Moreover, the Gut % in “in vivo” (± SD, listed as Gelsemine) turned out to be 30 ± 32%.
Consider `CC(C)[C@]12O[C@H]1[C@@H]1O[C@]13[C@]1(O[C@H]1C[C@H]1C4=C(CC[C@@]13C)C(=O)OC4)[C@@H]2O` [triptolide, Triptolide], for which, in series [1] (setting [4]), the Relative metabolization rate result is on record as “metabolized significantly slower”. Moreover, in series [1], the “Metabolization percentage, day 4 to 5” value is on record as “significantly lower; also recorded: negative metabolization percentages”. In addition, in series [1] (quantity in whole bees vs total intake over the 5-day feeding period, day 5, 2 h after feeding was terminated), the “Metabolization percentage, day 1 to 5” value is “significantly lower”. Moreover, in series [1] (setting [5]), the “Mean concentration (ng/bee)” value worked out at 4.4 ± 2.8 ng/bee. Besides, in the series “in vivo” (setting [8]), the “Bee without gut (ng/bee)” value is reported as 3.1 ± 1.5 ng/bee and the “Gut (ng/bee)” value is given as 0.6 ± 0.2 ng/bee. Also, the bioavailability in “in vivo” (setting [7]) was 21%. Moreover, in the series “in vivo” (setting [9]), the “oral bioavailability (%)” value turned out to be 20.6 ± 9.9%. Moreover, in the series “in vivo” (± SD), the “Bee without gut %” value amounted to 79 ± 11% and the Gut % came out at 21 ± 11%.
For `N#C[C@H](O[C@@H]1O[C@H](CO[C@@H]2O[C@H](CO)[C@@H](O)[C@H](O)[C@H]2O)[C@@H](O)[C@H](O)[C@H]1O)c1ccccc1` [amygdalin, Amygdalin], the LD50 in the series on honey bees is 0.003%. The Relative metabolization rate result in series [1] (setting [4]) is recorded as “metabolized significantly faster”. Besides, in series [1] (setting [5]), the “Mean concentration (ng/bee)” value is given as 238 ± 218 ng/bee. In the series “in vivo” (setting [8]), the “Bee without gut (ng/bee)” value is listed as 833 ± 511 ng/bee and the “Gut (ng/bee)” value worked out at 78 ± 34 ng/bee. Moreover, in the series “in vivo” (setting [7]), the bioavailability came out at 31 ± 19%. Moreover, in “in vivo” (± SD), the “Bee without gut %” value came out at 90 ± 5% and the Gut % is 11%.
As to `C/C=C1/C[C@@H](C)[C@@](C)(O)C(=O)OC/C2=C/CN(C)CC[C@@H](OC1=O)C2=O` [senkirkine, Senkirkine], in series [1] (setting [4]), the Relative metabolization rate entry is recorded as “metabolized significantly faster”. The “Mean concentration (ng/bee)” value in series [1] (setting [5]) is reported as 7.4 ± 3.5 ng/bee. In the series “in vivo” (setting [8]), the “Bee without gut (ng/bee)” value came out at 7.0 ± 4.9 ng/bee and the “Gut (ng/bee)” value worked out at 2.3 ± 3.0 ng/bee. The bioavailability in the series “in vivo” (setting [6]) is below 10%. In addition, in the series “in vivo” (setting [7]), the bioavailability was 9%. Further, the “oral bioavailability (%)” value in “in vivo” (setting [9]) came to 8.9 ± 6.3%. In the series “in vivo” (± SD), the “Bee without gut %” value amounted to 73 ± 28% and the Gut % turned out to be 27%.
As for `CN1[C@@H]2CC[C@H]1C[C@@H](OC(=O)C(CO)c1ccccc1)C2` (stereo partly shown) [atropine, Atropine, reference compound], the “Mean concentration (ng/bee)” value in series [1] (setting [5]) turned out to be 236 ± 76 ng/bee. Moreover, in “in vivo” (setting [8]), the “Bee without gut (ng/bee)” value came out at 89 ± 65 ng/bee and the “Gut (ng/bee)” value is on record as 90 ± 17 ng/bee. Further, in the series “in vivo” (± SD), the “Bee without gut %” value is given as 46 ± 15% and the Gut % was found to be 54 ± 15%. For the same molecule, in series [3], the “Consumed concentration that can impair honey bee memory retrieval” value is “above 10^–2 M”.
For `C/C=C1/C[C@@H](C)[C@@](C)(O)C(=O)OCC2=CCN3CC[C@@H](OC1=O)[C@@H]23` [senecionine, Senecionine], the “Mean concentration (ng/bee)” value in series [1] (setting [10]) is 4.9 ± 1.6 ng/bee. The Relative metabolization rate entry in series [1] (in vivo) is “metabolized significantly faster”. In the series “in vivo” (setting [10]), the “Bee without gut (ng/bee)” value was 3.4 ± 2.2 ng/bee and the “Gut (ng/bee)” value was determined as 2.3 ± 1.3 ng/bee. Besides, the bioavailability in the series “in vivo” (honey bee (Apis mellifera), in vivo, po, oral bioavailability (%)) was below 10%. Further, the bioavailability in “in vivo” (in vivo, po, oral bioavailability (%)) turned out to be 4 ± 2.6%.
